According to patent US6355799B1, “Substituted benzene compounds, process for their preparation, and herbicidal and defoliant compositions containing them” (ISK Americas Incorporated, priority 1997, dated 2002):

Legend:
Type in all cases: in vivo
[1] = tested on: redroot pigweed (Amaranthus retroflexus, AMARE); assay: Pre-emerge test, greenhouse herbicide activity screening; conditions: pre-emerge, rated 14 days after application, 0 = no damage, 100 = complete death
Outline: (§1)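 Visual ratings on a 0-100 scale (0 no damage, 100 all plants dead) were taken at 14 days after treatment. Rates of 15-1000 g ai/ha in acetone, 187 l/ha, were sprayed onto soil one day after planting (pre-emerge) or onto 2-3 leaf plants with 0.25% v/v surfactant (post-emerge).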

[2] = tested on: barnyardgrass (Echinochloa crus-galli, ECHCG); assay: as above; conditions: pre-emerge, rated 14 days after application, 0 = no damage, 100 = complete death
Outline: (§2)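 Compounds in acetone were track-sprayed at 15-1000 g ai/ha (187 l/ha) on sandy loam pots: pre-emerge one day after seeding, post-emerge at 2-3 leaf stage with 0.25% v/v non-ionic surfactant. Phytotoxicity was rated 14 days later on a 0 (no damage) to 100 (complete death) scale.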

[3] = tested on: common ragweed (Ambrosia artemisizfolia L., AMBEL); assay: as above; conditions: pre-emerge, rated 14 days after application, 0 = no damage, 100 = complete death
Outline: as §2

[4] = tested on: green foxtail (Setaria viridis, SETVI); assay: as above; conditions: pre-emerge, rated 14 days after application, 0 = no damage, 100 = complete death
Outline: as §2

[5] = tested on: ivyleaf morningglory (Ipomoea hederacea, IPOHE); assay: as above; conditions: pre-emerge, rated 14 days after application, 0 = no damage, 100 = complete death
Outline: as §2

[6] = tested on: johnsongrass (Sorghum halepense, SORHA); assay: as above; conditions: pre-emerge, rated 14 days after application, 0 = no damage, 100 = complete death
Outline: as §2

[7] = tested on: lambsquarters (Chenopodium album, CHEAL); assay: as above; conditions: pre-emerge, rated 14 days after application, 0 = no damage, 100 = complete death
Outline: as §2

[8] = tested on: large crabgrass (Digitaria sanguinalis, DIGSA); assay: as above; conditions: pre-emerge, rated 14 days after application, 0 = no damage, 100 = complete death
Outline: as §2

[9] = tested on: sicklepod (Cassia obtusifolia, CASOB); assay: as above; conditions: pre-emerge, rated 14 days after application, 0 = no damage, 100 = complete death
Outline: as §2

[10] = tested on: velvetleaf (Abutilon theophrasti, ABUTH); assay: as above; conditions: pre-emerge, rated 14 days after application, 0 = no damage, 100 = complete death
Outline: as §2

[11] = tested on: field corn (Zea mays L., var. Dekalb 535, CORN); assay: Pre-emerge test, crop safety; conditions: pre-emerge, rated 14 days after application, 0 = no damage, 100 = complete death
Outline: as §1

[12] = tested on: upland rice (Oryza sp., var. Tebonnet, RICE); assay: Pre-emerge test, crop safety; conditions: pre-emerge, rated 14 days after application, 0 = no damage, 100 = complete death
Outline: as §1

[13] = tested on: barnyardgrass (Echinochloa crus-galli, ECHCG); assay: Post-emerge test, greenhouse herbicide activity screening; conditions: phytotoxicity rating 0-100 (0 no damage, 100 complete death), 14 days after application
Outline: (§3)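 Each test used a mechanized track sprayer delivering 187 l/ha of acetone solution at 15–1000 g ai/ha. Post-emerge foliage at 2–3 leaves was treated with added 0.25% v/v non-ionic surfactant and bottom-watered only. Injury was assessed on day 14, where 100 means total kill.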

[14] = tested on: common ragweed (Ambrosia artemisizfolia L., AMBEL); assay: as above; conditions: phytotoxicity rating 0-100 (0 no damage, 100 complete death), 14 days after application
Outline: as §3

[15] = tested on: green foxtail (Setaria viridis, SETVI); assay: as above; conditions: phytotoxicity rating 0-100 (0 no damage, 100 complete death), 14 days after application
Outline: as §3

[16] = tested on: ivyleaf morningglory (Ipomoea hederacea, IPOHE); assay: as above; conditions: phytotoxicity rating 0-100 (0 no damage, 100 complete death), 14 days after application
Outline: as §3

[17] = tested on: johnsongrass (Sorghum halepense, SORHA); assay: as above; conditions: phytotoxicity rating 0-100 (0 no damage, 100 complete death), 14 days after application
Outline: as §3

[18] = tested on: lambsquarters (Chenopodium album, CHEAL); assay: as above; conditions: phytotoxicity rating 0-100 (0 no damage, 100 complete death), 14 days after application
Outline: as §3

[19] = tested on: large crabgrass (Digitaria sanguinalis, DIGSA); assay: as above; conditions: phytotoxicity rating 0-100 (0 no damage, 100 complete death), 14 days after application
Outline: as §3

[20] = tested on: redroot pigweed (Amaranthus retroflexus, AMARE); assay: as above; conditions: phytotoxicity rating 0-100 (0 no damage, 100 complete death), 14 days after application
Outline: as §3

[21] = tested on: sicklepod (Cassia obtusifolia, CASOB); assay: as above; conditions: phytotoxicity rating 0-100 (0 no damage, 100 complete death), 14 days after application
Outline: as §3

[22] = tested on: velvetleaf (Abutilon theophrasti, ABUTH); assay: as above; conditions: phytotoxicity rating 0-100 (0 no damage, 100 complete death), 14 days after application
Outline: as §3

[23] = tested on: field corn (Zea mays L., var. Dekalb 535, CORN); assay: Post-emerge test, crop safety; conditions: phytotoxicity rating 0-100 (0 no damage, 100 complete death), 14 days after application
Outline: as §2

[24] = tested on: upland rice (Oryza sp., var. Tebonnet, RICE); assay: Post-emerge test, crop safety; conditions: phytotoxicity rating 0-100 (0 no damage, 100 complete death), 14 days after application
Outline: as §2

With `COc1c(Cl)cc(F)c(-n2c(=O)c([N+](=O)[O-])c(C(F)(F)F)n(C)c2=O)c1[N+](=O)[O-]` [Compound 1-9] the “Pre-emerge Herbicidal Activity AMARE (phytotoxicity rating, scale 0-100)” value (from here on “Pre-emerge Herbicidal Activity AMARE”) ([1]; 63 g ai/ha) was 100, the “Pre-emerge Herbicidal Activity ECHCG (phytotoxicity rating, scale 0-100)” value (“Pre-emerge Herbicidal Activity ECHCG” for short) ([2]; 63 g ai/ha) was 100 and the “Pre-emerge Herbicidal Activity AMBEL (phytotoxicity rating, scale 0-100)” value (“Pre-emerge Herbicidal Activity AMBEL” for short) ([3]; 63 g ai/ha) was 100. The “Pre-emerge Herbicidal Activity SETVI (phytotoxicity rating, scale 0-100)” value (“Pre-emerge Herbicidal Activity SETVI” for short) ([4]; 63 g ai/ha) was 100, the “Pre-emerge Herbicidal Activity IPOHE (phytotoxicity rating, scale 0-100)” value (“Pre-emerge Herbicidal Activity IPOHE” for short) ([5]; 63 g ai/ha) was 100 and the “Pre-emerge Herbicidal Activity SORHA (phytotoxicity rating, scale 0-100)” value (“Pre-emerge Herbicidal Activity SORHA” for short) ([6]; 63 g ai/ha) was 100. The “Pre-emerge Herbicidal Activity CHEAL (phytotoxicity rating, scale 0-100)” value (“Pre-emerge Herbicidal Activity CHEAL” for short) ([7]; 63 g ai/ha) was 100, the “Pre-emerge Herbicidal Activity DIGSA (phytotoxicity rating, scale 0-100)” value (“Pre-emerge Herbicidal Activity DIGSA” for short) ([8]; 63 g ai/ha) was 100 and the “Pre-emerge Herbicidal Activity CASOB (phytotoxicity rating, scale 0-100)” value (“Pre-emerge Herbicidal Activity CASOB” for short) ([9]; 63 g ai/ha) was 100. For the same molecule, the “Pre-emerge Herbicidal Activity ABUTH (phytotoxicity rating, scale 0-100)” value (“Pre-emerge Herbicidal Activity ABUTH” for short) ([10]; 63 g ai/ha) was 100, the “Pre-emerge crop damage CORN (phytotoxicity rating, scale 0-100)” value (“Pre-emerge crop damage CORN” for short) ([11]; 63 g ai/ha) was 90 and the “Pre-emerge crop damage RICE (phytotoxicity rating, scale 0-100)” value (“Pre-emerge crop damage RICE” below) ([12]; 63 g ai/ha) was 95. The “Post-emerge Herbicidal Activity ECHCG” value ([13]; 63 g ai/ha) was 70, the “Post-emerge Herbicidal Activity AMBEL” value ([14]; 63 g ai/ha) was 90 and the “Post-emerge Herbicidal Activity SETVI” value ([15]; 63 g ai/ha) was 90. The “Post-emerge Herbicidal Activity IPOHE” value ([16]; 63 g ai/ha) was 100, the “Post-emerge Herbicidal Activity SORHA” value ([17]; 63 g ai/ha) was 90 and the “Post-emerge Herbicidal Activity CHEAL” value ([18]; 63 g ai/ha) was 100. For the same molecule, the “Post-emerge Herbicidal Activity DIGSA” value ([19]; 63 g ai/ha) was 90, the “Post-emerge Herbicidal Activity AMARE” value ([20]; 63 g ai/ha) was 100 and the “Post-emerge Herbicidal Activity CASOB” value ([21]; 63 g ai/ha) was 90. For the same molecule, the “Post-emerge Herbicidal Activity ABUTH” value ([22]; 63 g ai/ha) was 100, the “Post-emerge Herbicidal Activity CORN (crop damage)” value ([23]; 63 g ai/ha) was 30 and the “Post-emerge Herbicidal Activity RICE (crop damage)” value ([24]; 63 g ai/ha) was 40.
`COC(=O)C(=O)Nc1c(OC)c(Cl)cc(F)c1-n1c(=O)cc(C(F)(F)F)n(C)c1=O` [2-15] was tested, and the “Pre-emerge Herbicidal Activity AMARE” value ([1]; 63 g ai/ha) was 0, the “Pre-emerge Herbicidal Activity AMARE” value ([1]; 250 g ai/ha) was 80 and the “Pre-emerge Herbicidal Activity ECHCG” value ([2]; 63 g ai/ha) was 0. For the same molecule, the “Pre-emerge Herbicidal Activity ECHCG” value ([2]; 250 g ai/ha) was 0, the “Pre-emerge Herbicidal Activity AMBEL” value ([3]; 63 g ai/ha) was 0 and the “Pre-emerge Herbicidal Activity AMBEL” value ([3]; 250 g ai/ha) was 0. For the same molecule, the “Pre-emerge Herbicidal Activity SETVI” value ([4]; 63 g ai/ha) was 0, the “Pre-emerge Herbicidal Activity SETVI” value ([4]; 250 g ai/ha) was 0 and the “Pre-emerge Herbicidal Activity IPOHE” value ([5]; 63 g ai/ha) was 20. For the same molecule, the “Pre-emerge Herbicidal Activity IPOHE” value ([5]; 250 g ai/ha) was 30, the “Pre-emerge Herbicidal Activity SORHA” value ([6]; 63 g ai/ha) was 0 and the “Pre-emerge Herbicidal Activity SORHA” value ([6]; 250 g ai/ha) was 0. The “Pre-emerge Herbicidal Activity CHEAL” value ([7]; 63 g ai/ha) was 60, the “Pre-emerge Herbicidal Activity CHEAL” value ([7]; 250 g ai/ha) was 40 and the “Pre-emerge Herbicidal Activity DIGSA” value ([8]; 63 g ai/ha) was 0. The “Pre-emerge Herbicidal Activity DIGSA” value ([8]; 250 g ai/ha) was 0, the “Pre-emerge Herbicidal Activity CASOB” value ([9]; 63 g ai/ha) was 0 and the “Pre-emerge Herbicidal Activity CASOB” value ([9]; 250 g ai/ha) was 0. For the same molecule, the “Pre-emerge Herbicidal Activity ABUTH” value ([10]; 63 g ai/ha) was 20, the “Pre-emerge Herbicidal Activity ABUTH” value ([10]; 250 g ai/ha) was 90 and the “Pre-emerge crop damage CORN” value ([11]; 63 g ai/ha) was 0. For the same molecule, the “Pre-emerge crop damage CORN” value ([11]; 250 g ai/ha) was 0, the “Pre-emerge crop damage RICE” value ([12]; 63 g ai/ha) was 10 and the “Pre-emerge crop damage RICE” value ([12]; 250 g ai/ha) was 0. For the same molecule, the “Post-emerge Herbicidal Activity ECHCG” value ([13]; 63 g ai/ha) was 0, the “Post-emerge Herbicidal Activity ECHCG” value ([13]; 250 g ai/ha) was 0 and the “Post-emerge Herbicidal Activity AMBEL” value ([14]; 63 g ai/ha) was 10. The “Post-emerge Herbicidal Activity AMBEL” value ([14]; 250 g ai/ha) was 40, the “Post-emerge Herbicidal Activity SETVI” value ([15]; 63 g ai/ha) was 0 and the “Post-emerge Herbicidal Activity SETVI” value ([15]; 250 g ai/ha) was 0. The “Post-emerge Herbicidal Activity IPOHE” value ([16]; 63 g ai/ha) was 40, the “Post-emerge Herbicidal Activity IPOHE” value ([16]; 250 g ai/ha) was 90 and the “Post-emerge Herbicidal Activity SORHA” value ([17]; 63 g ai/ha) was 0. The “Post-emerge Herbicidal Activity SORHA” value ([17]; 250 g ai/ha) was 0, the “Post-emerge Herbicidal Activity CHEAL” value ([18]; 63 g ai/ha) was 40 and the “Post-emerge Herbicidal Activity CHEAL” value ([18]; 250 g ai/ha) was 60. For the same molecule, the “Post-emerge Herbicidal Activity DIGSA” value ([19]; 63 g ai/ha) was 0, the “Post-emerge Herbicidal Activity DIGSA” value ([19]; 250 g ai/ha) was 0 and the “Post-emerge Herbicidal Activity AMARE” value ([20]; 63 g ai/ha) was 0. For the same molecule, the “Post-emerge Herbicidal Activity AMARE” value ([20]; 250 g ai/ha) was 20, the “Post-emerge Herbicidal Activity CASOB” value ([21]; 63 g ai/ha) was 10 and the “Post-emerge Herbicidal Activity CASOB” value ([21]; 250 g ai/ha) was 10. The “Post-emerge Herbicidal Activity ABUTH” value ([22]; 63 g ai/ha) was 70, the “Post-emerge Herbicidal Activity ABUTH” value ([22]; 250 g ai/ha) was 90 and the “Post-emerge Herbicidal Activity CORN (crop damage)” value ([23]; 63 g ai/ha) was 0. The “Post-emerge Herbicidal Activity CORN (crop damage)” value ([23]; 250 g ai/ha) was 0, the “Post-emerge Herbicidal Activity RICE (crop damage)” value ([24]; 63 g ai/ha) was 0 and the “Post-emerge Herbicidal Activity RICE (crop damage)” value ([24]; 250 g ai/ha) was 0.
